Test results published in patent US20110166097A1, “TAXANE COMPOUNDS FOR TREATING EYE DISEASE” (Osiris Therapeutics, Inc., priority 2008, published 2011).

Columns and labels:
[1] = system: choroidal neovascularization by laser burns of the eye; experiment: Choroidal neovascularization model (fluorescein angiography leakage score); assay type: in vivo; conditions: rats
Experimental: Groups of 8 rats/dosage group or vehicle are neovascularized by laser burns on the eye. Afterwards, the eye is immediately treated with a cobalamin-paclitaxel bioconjugate prepared in accordance with Example 1 at a dose of 1.5 μg/2 μL, 5.0 μg/2 μL, and 15 μg/2 μL (indicated as B.C. in FIG. 1). The treatment regimen also includes a vehicle and Kenacort Retard® (4% triamcinolone acetonide), as a positive control. Each treatment is scored at 7, 14, and 21 days post-treatment by infusing the eye with fluorescein and scoring the leakage using angiography. A score of 0 indicates no leakage while a score of 3 indicates severe leakage.

[2] = system: viable circulating endothelial cell precursors (CEPS); experiment: Cobalamin-paclitaxel bioconjugate dose study: viable circulating endothelial cell precursors; assay type: in vivo; conditions: mice
Experimental: (§1) The effects on counts of viable circulating endothelial cell precursors and white blood cells are measured after 28 days. Corresponding amounts of the cobalamin-paclitaxel bioconjugate, viable circulating endothelial cell precursors (CEPS), and white blood cells are presented in the Table 1:

[3] = system: bFGF-stimulated formation of new blood vessel in the Matrigel plug; experiment: Matrigel plug perfusion in vivo assay; conditions: mice, 2, 6 and 30 mg/kg (paclitaxel units), oral gavage
Experimental: A Matrigel® plug perfusion in vivo assay is performed to determine the anti-angiogenic efficacy of the cobalamin-paclitaxel bioconjugate (Cob-Pac) of Example 1. The assay uses Matrigel®, a gelatinous protein mixture secreted by mouse tumor cells (BD Biosciences, San Jose, Calif.), to duplicate tissue environments. Matrigel® is liquid at room temperature, but when injected into the animal, forms a solid plug. If a growth vessel stimulant such as basic fibroblast growth factor (bFGF) is mixed with the Matrigel®, the bFGF stimulates the formation of new blood vessel in the plug, which can be monitored in the animal via fluorescence techniques. In the current study, Matrigel® is injected either alone or with bFGF subcutaneously into mice.

[4] = system: choroidal neovascularization lesions; experiment: Lesion study (flat mount evaluation, choroidal neovascularization); assay type: in vivo, rats; conditions: after 21 days
Experimental: In another study, flat mount evaluation of the eyes can be carried out at the end of the study because angiography may not provide a full evaluation of the effect of the drug. At the end of the study, the eyes are removed, histologically processed and all lesions can be seen (including those that can not be detected by angiography). Such an evaluation can be used as a better measure of the choroidal neovascularization model.
Dosages used are 1.5 μg/2 μL, 5.0 μg/2 μL, and 15 μg/2 μL. The treatments also include a vehicle and Kenacort Retard® (4% triamcinolone acetonide). After 21 days, the eyes are removed, histologically processed, and the lesion size scored in μm^3.

Water solubility = assay type: physicochemical; conditions: conjugated to cobalt atom of cobalamin
white blood cells = experiment: Cobalamin-paclitaxel bioconjugate dose study: white blood cell count; assay type: in vivo; conditions: mice, about 2 mg/kg, 28 days
Experimental: as §1

## CC(=O)O[C@H]1C(=O)[C@@]2(C)C([C@H](OC(=O)c3ccccc3)[C@]3(O)C[C@H](OC(=O)[C@H](OC(=O)C[NH+](C)CC[CH2][Co+][N]4/C5=C(/C)C6=N/C(=C\C7=NC(=C(/C)C8=NC(C(C)C4C(CC(N)=O)C5(C)CCC(=O)NCC(C)OP(=O)([O-])OC4C(CO)OC(n5cnc9cc(C)c(C)cc95)C4O)C(C)(CC(N)=O)C8CCC(N)=O)/C(C)(CC(N)=O)C7CCC(N)=O)C(C)(C)C6CCC(N)=O)[C@@H](NC(=O)c4ccccc4)c4ccccc4)C(C)=C1C3(C)C)[C@]1(OC(C)=O)COC1C[C@@H]2O.[Cl-] (stereo partly drawn) [cobalamin-paclitaxel bioconjugate, Cbl-(CH2)3N(CH3)CH2COO-2′-PTX]
[1]; after 7 days, intermediate and high doses (5.0 μg/2 μL and 15 μg/2 μL) to the eye
  Anti-angiogenic result by angiography leakage score (FIG. 1): show anti-angiogenic results
[1]; after 14 days, high dose (15 μg/2 μL) to the eye
  Anti-angiogenic result by angiography leakage score (FIG. 1): still provides anti-angiogenic benefit
[2]; 28-day dose study, dose as paclitaxel
  Most effective dose (viable CEPS): about 2 mg/kg
[2]; at each dose (1.5-30 mg/kg), 28 days
  Anti-angiogenic effect on viable CEPS: marked decrease in viable CEPS
[3]
  Effect on growth of new blood vessels in Matrigel plug: inhibits the growth of new blood vessels in each instance shown
[4]; rats, 1.5, 5.0 and 15 μg/2 μL to the eye
  Number of blood vessel lesions (FIG. 2): decrease in a concentration dependent manner
[4]; rats, high and medium concentrations (15 and 5.0 μg/2 μL)
  Inhibition of new blood vessel growth (lesion study): efficacious in inhibiting new blood vessel growth
Water solubility
  solubility: > 100 mg/mL
White blood cells
  Toxicity by white blood cell count: no neutropenia
